Experimental data reported in ChEMBL document CHEMBL1201862, “PubChem BioAssay data set” (2004).
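Grown in 96-well plates, cells were treated for 48 hours with each compound at five concentrations. Insufficient inhibition: endpoint recorded as highest concentration tested. At the GI50, growth is halved.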 Active and inactive are the calls of the source. Rule as the data show it: active = GI50 up to about 1.1 µM and inactive = higher.

What was measured:
Test in all cases: NCI tumour cell line growth inhibition, 48 h
RPMI-8226 = tested on: RPMI-8226
MOLT-4 = tested on: MOLT-4
COLO 205 = tested on: COLO 205
MDA-MB-231 = tested on: MDA-MB-231
786-0 = tested on: 786-0
OVCAR-8 = tested on: OVCAR-8
CAKI-1 = tested on: CAKI-1
SF-268 = tested on: SF-268
UACC-257 = tested on: UACC-257
HT-29 = tested on: HT-29
A549 = tested on: A549
HCT-15 = tested on: HCT-15
EKVX = tested on: EKVX
RXF 393 = tested on: RXF 393
SF-295 = tested on: SF-295
T47D = tested on: T47D
CCRF-CEM = tested on: CCRF-CEM
MCF7 = tested on: MCF7
SN12C = tested on: SN12C
UACC-62 = tested on: UACC-62
PC-3 = tested on: PC-3
KM12 = tested on: KM12
SW-620 = tested on: SW-620
K562 = tested on: K562
SNB-75 = tested on: SNB-75
SK-MEL-5 = tested on: SK-MEL-5
HOP-62 = tested on: HOP-62
M14 = tested on: M14
SK-MEL-28 = tested on: SK-MEL-28
NCI-H23 = tested on: NCI-H23
HCC 2998 = tested on: HCC 2998
Malme-3M = tested on: Malme-3M
SR = tested on: SR
DU-145 = tested on: DU-145
IGROV-1 = tested on: IGROV-1
MDA-N = tested on: MDA-N
TK-10 = tested on: TK-10
HL-60 = tested on: HL-60
SK-OV-3 = tested on: SK-OV-3
UO-31 = tested on: UO-31
SNB-19 = tested on: SNB-19
OVCAR-5 = tested on: OVCAR-5
ACHN = tested on: ACHN
NCI/ADR-RES = tested on: NCI/ADR-RES
SK-MEL-2 = tested on: SK-MEL-2
HCT-116 = tested on: HCT-116
Hs-578T = tested on: Hs-578T
NCI-H226 = tested on: NCI-H226
LOX IMVI = tested on: LOX IMVI
U-251 = tested on: U-251
MDA-MB-435 = tested on: MDA-MB-435
OVCAR-4 = tested on: OVCAR-4
A498 = tested on: A498
OVCAR-3 = tested on: OVCAR-3
HOP-92 = tested on: HOP-92

For N#Cc1ccc(/N=C(/NCC(=O)O)Nc2ccc3ccccc3c2)cc1, the GI50 (RPMI-8226) was > 10 µM (inactive), the GI50 (MOLT-4) was > 10 µM (inactive) and the GI50 (COLO 205) was > 10 µM (inactive). For the same compound, the GI50 (MDA-MB-231) was > 10 µM (inactive), the GI50 (786-0) was > 10 µM (inactive) and the GI50 (OVCAR-8) was > 10 µM (inactive). The GI50 (CAKI-1) was > 10 µM (inactive), the GI50 (SF-268) was > 10 µM (inactive) and the GI50 (UACC-257) was > 10 µM (inactive). The GI50 (HT-29) was > 10 µM (inactive), the GI50 (A549) was > 10 µM (inactive) and the GI50 (HCT-15) was > 10 µM. The GI50 (EKVX) was > 10 µM (inactive), the GI50 (RXF 393) was > 10 µM (inactive) and the GI50 (SF-295) was > 10 µM (inactive). The GI50 (T47D) was > 10 µM (inactive), the GI50 (CCRF-CEM) was > 10 µM (inactive) and the GI50 (MCF7) was > 10 µM (inactive). The GI50 (SN12C) was > 10 µM (inactive), the GI50 (UACC-62) was > 10 µM (inactive) and the GI50 (PC-3) was > 10 µM (inactive). The GI50 (KM12) was > 10 µM (inactive), the GI50 (SW-620) was > 10 µM (inactive) and the GI50 (K562) was > 10 µM (inactive). For the same compound, the GI50 (SNB-75) was > 10 µM (inactive), the GI50 (SK-MEL-5) was > 10 µM (inactive) and the GI50 (HOP-62) was > 10 µM (inactive). The GI50 (M14) was > 10 µM (inactive), the GI50 (SK-MEL-28) was > 10 µM (inactive) and the GI50 (NCI-H23) was > 10 µM (inactive). For the same compound, the GI50 (HCC 2998) was > 10 µM (inactive), the GI50 (Malme-3M) was > 10 µM (inactive) and the GI50 (SR) was > 10 µM (inactive). The GI50 (DU-145) was > 10 µM (inactive), the GI50 (IGROV-1) was > 10 µM (inactive) and the GI50 (MDA-N) was > 10 µM (inactive). For the same compound, the GI50 (TK-10) was > 10 µM (inactive), the GI50 (HL-60) was > 10 µM (inactive) and the GI50 (SK-OV-3) was > 10 µM (inactive).

For O=C1/C(=C/c2ccccc2)NC(=S)N1CN1CCOCC1, the GI50 (UO-31) was > 100 µM (inactive), the GI50 (RPMI-8226) was > 100 µM (inactive) and the GI50 (SNB-19) was > 100 µM (inactive). The GI50 (OVCAR-5) was > 100 µM (inactive), the GI50 (MOLT-4) was > 100 µM (inactive) and the GI50 (COLO 205) was > 100 µM (inactive). The GI50 (ACHN) was > 100 µM (inactive), the GI50 (MDA-MB-231) was > 100 µM (inactive) and the GI50 (786-0) was > 100 µM (inactive). The GI50 (OVCAR-8) was > 100 µM (inactive), the GI50 (SF-268) was > 100 µM (inactive) and the GI50 (NCI/ADR-RES) was > 100 µM (inactive). The GI50 (UACC-257) was > 100 µM (inactive), the GI50 (HT-29) was > 100 µM (inactive) and the GI50 (A549) was > 100 µM (inactive). For the same compound, the GI50 (HCT-15) was > 100 µM, the GI50 (EKVX) was > 100 µM (inactive) and the GI50 (SF-295) was > 100 µM (inactive). For the same compound, the GI50 (SK-MEL-2) was > 100 µM (inactive), the GI50 (CCRF-CEM) was > 100 µM (inactive) and the GI50 (MCF7) was > 100 µM (inactive). For the same compound, the GI50 (SN12C) was > 100 µM (inactive), the GI50 (HCT-116) was > 100 µM (inactive) and the GI50 (UACC-62) was > 100 µM (inactive). The GI50 (PC-3) was > 100 µM (inactive), the GI50 (KM12) was > 100 µM (inactive) and the GI50 (Hs-578T) was > 100 µM (inactive). For the same compound, the GI50 (SW-620) was > 100 µM (inactive), the GI50 (K562) was > 100 µM (inactive) and the GI50 (SNB-75) was > 100 µM (inactive). For the same compound, the GI50 (NCI-H226) was > 100 µM (inactive), the GI50 (SK-MEL-5) was > 100 µM (inactive) and the GI50 (LOX IMVI) was > 100 µM (inactive). For the same compound, the GI50 (U-251) was > 100 µM (inactive), the GI50 (HOP-62) was > 100 µM (inactive) and the GI50 (M14) was > 100 µM (inactive). The GI50 (SK-MEL-28) was > 100 µM (inactive), the GI50 (NCI-H23) was > 100 µM (inactive) and the GI50 (Malme-3M) was > 100 µM (inactive). For the same compound, the GI50 (SR) was > 100 µM (inactive), the GI50 (MDA-MB-435) was > 100 µM (inactive) and the GI50 (DU-145) was > 100 µM (inactive). For the same compound, the GI50 (IGROV-1) was > 100 µM (inactive), the GI50 (MDA-N) was > 100 µM (inactive) and the GI50 (OVCAR-4) was 72.8 µM (inactive). The GI50 (TK-10) was > 100 µM (inactive), the GI50 (A498) was 82.2 µM (inactive) and the GI50 (OVCAR-3) was > 100 µM (inactive). The GI50 (HOP-92) was > 100 µM (inactive) and the GI50 (SK-OV-3) was > 100 µM (inactive).
